Experimental data from patent US20110176998A1, “IMAGING AND THERAPY OF VIRUS-ASSOCIATED TUMORS” (THE JOHNS HOPKINS UNIVERSITY, priority 2007, published 2011).
“Also recorded” adds a separate entry of the source. Where two headings read alike, the source gives them in different places.

Experiments:
Zta promoter = assay type: cell-based, Epstein-Barr virus; settings: for Zta promoter luciferase activity / induction of BZLF1 promoter: AGS cells
[1] = system: recombinant EBV encoding GFP (BX-1) in AKATA-BX1 cells; experiment: GFP whole virus assay in AKATA-BX1 cells; settings: for GFP signal: AKATA-BX1 cells
[2] = system: CMV promoter driven GFP in Hela cells
BZLF1 protein (ZTA) = experiment: Western blot / immunoblot for ZTA (BZLF1 protein) in EBV positive cell lines; assay type: cell-based, Epstein-Barr virus; settings: for BZLF protein expression: SNU719, AKATA, Raji, LCL and Rael cells
Description: To detect expression of the EBV-TK or EBV-ZTA, total cell protein was first extracted by treating cells with lysis buffer (0.05 M Tris, pH 7.6, 0.15 M NaCl, 1% triton-X 100, 2 mM EDTA) containing protease inhibitors for 10 minutes at 4° C. The following reagents were added to 1 mL of lysis buffer: 2 μL leupeptin (5 mg/mL), 1 μL 0.2 M Na3VO4, 1 μL NaF, 1 μL aprotinin (10 mg/ml), 1 μL, pepstatin (2 mM), and 10 μL PMSF (100 mM) for 10 minutes at 4° C. Following centrifugation, the supernatant was collected and stored at −80° C. Protein concentration was determined with the BCA Protein Assay Kit (Pierce, Rockford, Ill.) according to the manufacturer's instructions. A 10 μg aliquot of total cellular protein was fractionated on a 7.5% SDS-polyacrylamide gel. Proteins were transferred to PROTRAN nitrocellulose membrane (Schleicher & Schuell, Keene, N.H.). The membranes were blocked with 5% blotting grade non-fat dry milk (Bio-rad, Hercules, Calif.) in PBS with 0.1% TWEEN-20 (PBS-T) at 4° C. overnight. The membranes were then washed with PBS-T twice followed by incubation with 1/1,000-diluted rabbit anti-TK sera from a rabbit immunized with a synthetic EBV-TK peptide ([…]) or anti-ZTA monoclonal antibody (Argene, North Massapequa, N.Y.) at room temperature for 1 hour. After washing, the membranes were incubated with HRP-conjugated goat anti-rabbit IgG antibodies or HRP-conjugated goat anti-mouse IgG antibodies (Amersham Pharmacia Biotech, Piscataway, N.J.) at a 1/5,000 dilution in PBS-T at room temperature for 1 hour. The membranes were washed twice and proteins were detected with ECL Western Blotting Detection reagents (Amersham Pharmacia Biotech). The membranes were exposed to X-OMAT film (Kodak, Rochester, N.Y.) at room temperature.
For lytic induction studies, cells were seeded at 10^6/ml, and treated with test compounds for 48 hours. Control untreated cells were incubated in parallel.
Cells were washed with PBS twice. Total cellular protein was extracted with lysis buffer. Proteins were electrophoresed in polyacrylamide and then transferred onto a PROTRAN nitrocellulose membrane (Schleicher&Schuell, Keene, N.H.). Blots were probed with primary antibody (Ab) overnight at 4° C. HRP-conjugated secondary Ab was added after washing and detected by an enhanced chemiluminescence system (ECL) (Amersham). The following antibodies were used: anti-ZTA (Argene), anti-f3-actin (Sigma), anti-mouse (Sigma).

EBV-TK = experiment: immunoblot for EBV-TK expression; assay type: cell-based, Epstein-Barr virus; settings: Rael cells; immunoblot
Description: To detect expression of the EBV-TK or EBV-ZTA, total cell protein was first extracted by treating cells with lysis buffer (0.05 M Tris, pH 7.6, 0.15 M NaCl, 1% triton-X 100, 2 mM EDTA) containing protease inhibitors for 10 minutes at 4° C. The following reagents were added to 1 mL of lysis buffer: 2 μL leupeptin (5 mg/mL), 1 μL 0.2 M Na3VO4, 1 μL NaF, 1 μL aprotinin (10 mg/ml), 1 μL, pepstatin (2 mM), and 10 μL PMSF (100 mM) for 10 minutes at 4° C. Following centrifugation, the supernatant was collected and stored at −80° C. Protein concentration was determined with the BCA Protein Assay Kit (Pierce, Rockford, Ill.) according to the manufacturer's instructions. A 10 μg aliquot of total cellular protein was fractionated on a 7.5% SDS-polyacrylamide gel. Proteins were transferred to PROTRAN nitrocellulose membrane (Schleicher & Schuell, Keene, N.H.). The membranes were blocked with 5% blotting grade non-fat dry milk (Bio-rad, Hercules, Calif.) in PBS with 0.1% TWEEN-20 (PBS-T) at 4° C. overnight. […] The membranes were washed twice and proteins were detected with ECL Western Blotting Detection reagents (Amersham Pharmacia Biotech). […]

[3] = system: EBV viral DNA copy number; experiment: real-time PCR for EBV viral DNA copy number (viral replication); assay type: cell-based, Epstein-Barr virus; settings: for lytic protein expression or viral replication: B cells or gastric epithelial cells (SNU 719)
Description: Genomic DNA from treated cells were extracted with the QIAamp DNA mini kit (Qiagen, CA) according to the manufacturer's instructions. PCRs were set up in a volume of 50 μL with a TaqMan PCR core reagent kit (Perkin-Elmer Corp., Branchburg, N.J.). Fluorescent probes were custom synthesized by Perkin-Elmer Applied Biosystems. PCR primers were synthesized by Gibco BRL (Frederick, Md.). Each reaction contained 5 μL of 10× buffer A (4 mM MgCl2), amplification primers (300 nM), fluorescent probe (25 nM), dATP, dCTP, and dGTP (200 μM each), dUTP (400 uM), 1.25 U of AmpliTaq Gold, and 0.5 U of AmpErase uracil N-glycosylase. Extracted genomic DNA was used for amplification. DNA amplification was carried out in a 96-well reaction plate in a Perkin-Elmer Applied Biosystems 7700 sequence detector. Each sample was analyzed in duplicate, and multiple negative water blanks were included in each analysis. A calibration curve was run in parallel and in duplicate with each analysis, with DNA extracted from the EBV-positive cell line Namalwa as a standard.
The EBV genome was quantified by real-time PCR with the ICycler system (Biorad, Hercules, Calif.). Template DNA was extracted with a mini blood DNA Kit (Qiagen, Valencia, Calif.). […]. A calibration curve was run in parallel and in duplicate with each analysis, using DNA extracted from the diploid EBV-positive cell line Namalwa containing two integrated viral genomes per cell as a standard. Amplification data were collected with an MyiQ single color real-time PCR Detector (Biorad) and analyzed with the MyiQ software developed by Biorad.

[4] = system: EBV(+) Burkitt's lymphoma (Rael); experiment: tumor growth, EBV(+) Burkitt's lymphoma (Rael) xenografts; assay type: in vivo, SCID mice; settings: bortezomib without [131I]FIAU
Description: Therefore, an evaluation of a therapeutic isotope was carried out. As described above, SCID mice engrafted with EBV Burkitt's lymphoma xenografts received either buffer or bortezomib followed the next day by treatment with [^131I]FIAU or no treatment. […] Thus, bortezomib allowed targeting of [^131I]FIAU with therapeutic effect. Other proteasome inhibitors are also likely to be active. Several are in clinical trial.
Biostatistics. Linear regression and curve fitting were undertaken carried using GraphPad Prism software version 5.00 for Windows, GraphPad Software, San Diego Calif. USA, www.graphpad.com.

EBV(+) Akata cells = experiment: entry of EBV(+) Akata cells into the lytic cycle; settings: 20 nM, 48 hours
[5] = system: EBV-TK functional activity in Burkitt's lymphoma cell lines; experiment: in vitro [14C]FIAU cell uptake after bortezomib; assay type: cell-based, Epstein-Barr virus
Description: For in vitro [^14C]FIAU uptake studies, cells were seeded at 5×10^5 cells/mL and incubated with 10 nM bortezomib at 37° C. for 6-12 hrs. They were washed and then incubated with 0.04 μCi/mL [^14C]FIAU at 37° C. for 2, 4, 8, 24, 48, 72 hours. Cells were pelleted by centrifugation and washed with unlabeled FIAU. Radioactivity of the isolated cells and pooled medium with washes were then counted separately by scintillation counting with a Beckman Coulter LS5000TA scintillation counter (Fullerton, Calif.). Total cellular protein was extracted by incubating in lysis buffer (0.05 M Tris, pH 7.6, 0.15 M NaCl, 1% triton-X 100, 2 mM EDTA) and cell debris were removed by centrifugation. The supernatant was collected and the protein concentration was determined with the BCA protein assay kit (Pierce, Rockford, Ill.) according to the manufacturer's instructions. Cell uptake was expressed as the accumulation ratio, that is, the counts per minute per gram (cpm/g) of cells divided by the cpm/g (mL) of medium.

[6] = administered to patients for imaging; cited from earlier work

Compound: Nc1ncn([C@H]2C[C@H](O)[C@@H](CO)O2)c(=O)n1 [5′-azadeoxycytidine, 5-Aza-2′-deoxycytidine]
- Zta promoter luciferase activity (Zta promoter): did not activate; also recorded: not activated
- GFP signal [1]: induced
- GFP signal in control cell line [2]: not activated

Compound: CC(C)C[C@H](NC(=O)[C@H](Cc1ccccc1)NC(=O)c1cnccn1)B(O)O [Bortezomib]
- Zta promoter luciferase activity (Zta promoter): increases in a bortezomib dose-dependent manner
- induction of BZLF1 promoter (Zta promoter; 10 nM): induced
- known lytic inducer re-identified / hit in epithelial promoter reporter assay (Zta promoter; library screen at 10 uM): most prominent hit
- EC50 for inducing lytic infection (Zta promoter; luciferase assay): nanomolar scale
- ZTA expression (BZLF1 protein (ZTA); Rael cells): induced
- EBV-TK expression (EBV-TK): induced
- increase of EBV viral DNA copy number ([3]; Rael cells, 20 nM for 8 hours, DNA collected after 48 hours): 20 fold
- viral copy number ([3]; real time DNA PCR, Rael): increased
- tumor growth [4]: slowed tumor growth
- GFP signal [1]: dose dependent
- GFP signal ([1]; 10 nM): induced GFP signal
- EC50 for inducing lytic infection ([1]; GFP assay): nanomolar scale
- known lytic inducer re-identified / hit in lymphoma cell line/whole virus assay ([1]; library screen at 10 uM): most prominent hit
- cells entered the lytic cycle (EBV(+) Akata cells): 67%

Compound: CC(C(=O)O)c1ccc(N2Cc3ccccc3C2=O)cc1 (stereo not shown) [Indoprofen]
- induction of BZLF1 promoter (Zta promoter; 10 μM): can induce
- ZTA expression (BZLF1 protein (ZTA); SNU719 cells, high dose): induced
- EBV viral replication ([3]; SNU719 cells): not viral replication; also recorded: did not induce

Compound: Cc1oncc1C(=O)Nc1ccc(C(F)(F)F)cc1 [Leflunomide, N-(4′-trifluoromethylphenyl)-5-methylisoxazole-4-carboxamide]
- BZLF protein expression (BZLF1 protein (ZTA)): did not induce
- lytic protein expression or viral replication [3]: don't induce

Compound: CC(C)[C@H](CO)Nc1nc(Nc2cccc(Cl)c2)c2ncn(C(C)C)c2n1 [Purvalanol A]
- inhibition of EBV immediate early gene ZTA expression (BZLF1 protein (ZTA); AKATA-BX1, anti-IgG induction): inhibited
- inhibition of GFP signal after lytic induction ([1]; AKATA-BX1 cells induced with anti-IgG): specifically inhibited

Compound: CCCCCCCCCCCCCC(=O)O[C@@H]1[C@@H](C)[C@@]2(O)[C@@H](C=C(CO)C[C@]3(O)C(=O)C(C)=C[C@@H]23)[C@@H]2C(C)(C)[C@]12OC(C)=O [TPA, phorbol 12-tetradecanoate 13-acetate]
- Zta promoter luciferase activity (Zta promoter): activated
- GFP signal in control cell line [2]: not activated

Compound: COc1ccc(C=CC(=O)Nc2ccccc2C(=O)O)cc1OC [Tranilast, N-(3,4-dimethoxycinnamoyl)anthranilic acid]
- BZLF protein expression (BZLF1 protein (ZTA)): did not induce
- lytic protein expression or viral replication [3]: don't induce

Compound: O=c1[nH][14c](=O)n([C@@H]2O[C@H](CO)[C@@H](O)[C@@H]2F)cc1I [[^14C]FIAU, [2-^14C]2′-Fluoro-2′-deoxy-β-D-5-iodouracil-arabinofuranoside]
- accumulation of [14C]FIAU ([5]; EBV(+) Akata and EBV(+) Rael cells following treatment with bortezomib): increased
- accumulation of [14C]FIAU ([5]; EBV(−) Akata cells following treatment with bortezomib): not

Compound: O=c1[nH]c(=O)n([C@@H]2O[C@H](CO)[C@@H](O)[C@@H]2F)cc1[125I] [[^124I]FIAU, 2′-fluoro-2′deoxy-1-beta-D-arabinofuranosyl-5-iodo-uracil]
- effect on hepatic function [6]: without any adverse effect on hepatic function
